Results on 9 compounds are retold here after PubChem BioAssay (NCI).

Some test systems named below: TK-10 renal; HL-60(TB) leukemia; NCI-H460 lung; COLO 205 colon; UACC-257 melanoma; UO-31 renal; NCI-H226 lung; SF-539 CNS; CCRF-CEM leukemia; SNB-19 CNS.
Holding throughout (test): inhibition of tumour cell growth, NCI panel, 48 h

SMILES strings stand for the structures. “And” between values parts separate entries of the source, which are not always exact repeats. Identical values can stand only once.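 Grown in 96-well plates, cells were treated for 48 hours with each compound at five concentrations. Insufficient inhibition: endpoint recorded as highest concentration tested. GI50 marks 50% less growth. Definition used: TGI = concentration required for complete inhibition of growth.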

Turning to `Cc1cc2c3c([n+](C)c4ccc(F)cc4c3c1)-c1cc(F)ccc1N2C`, the GI50 is 51.8 µM with TK-10 renal; 25.4 µM with HL-60(TB) leukemia; 15.4 µM in the test with NCI-H460 lung; 3.5 µM in the test with COLO 205 colon; 6.2 µM with UACC-257 melanoma; greater than 100 µM in the test with UO-31 renal. The GI50 was 3.41 µM with NCI-H226 lung, 3.28 µM in the test with SF-539 CNS, 7.17 µM with CCRF-CEM leukemia and 4.13 µM in the test on SNB-19 CNS. Besides, the TGI in the test with TK-10 renal is greater than 100 µM; with HL-60(TB) leukemia, greater than 100 µM; in the test on NCI-H460 lung, 49.5 µM; in the test on COLO 205 colon, 16.3 µM; in the test on UACC-257 melanoma, 30.5 µM; in the test on UO-31 renal, greater than 100 µM. Moreover, the TGI was 57.3 µM with NCI-H226 lung, 20.6 µM in the test with SF-539 CNS, greater than 100 µM in the test with CCRF-CEM leukemia and greater than 100 µM with SNB-19 CNS.

Turning to `CC(C)c1[nH]nc2c(NCc3ccc(-c4ccccn4)cc3)nc(SCCN)nc12`, the GI50 in the test on TK-10 renal was 0.155 µM; with HL-60(TB) leukemia it was 0.00469 µM; in the test with NCI-H460 lung it was 0.0381 µM and 0.0356 µM; with UACC-257 melanoma it was 0.0414 µM and 0.0235 µM; in the test with UO-31 renal, 0.186 µM and 0.402 µM; in the test with NCI-H226 lung, 0.0404 µM and 0.0279 µM. Moreover, the GI50 was 0.0314 µM and 0.0272 µM with SF-539 CNS; 0.00978 µM with CCRF-CEM leukemia; 0.0173 µM and 0.0142 µM with SNB-19 CNS. Further, the TGI with TK-10 renal is 10.1 µM; in the test with HL-60(TB) leukemia, 0.0443 µM; in the test on NCI-H460 lung it was 2.05 µM and 10 µM; with COLO 205 colon, 0.0342 µM; in the test with UACC-257 melanoma it was 0.0875 µM; with NCI-H226 lung it was 0.0985 µM. Further, the TGI with SF-539 CNS was 0.0979 µM and 0.0811 µM; with CCRF-CEM leukemia, 15.1 µM; in the test on SNB-19 CNS it was 11.8 µM.

As for `CN(C)C(=S)/N=c1\ssc(=S)n1Cc1ccco1`, the TGI in the test on TK-10 renal is greater than 100 µM; with HL-60(TB) leukemia it was 8.2 µM; with NCI-H460 lung, greater than 64.8 µM; in the test on COLO 205 colon, greater than 100 µM; in the test on UACC-257 melanoma, greater than 100 µM; in the test on UO-31 renal it was greater than 100 µM. The TGI in the test on NCI-H226 lung is greater than 100 µM; in the test on SF-539 CNS, 7.66 µM; with CCRF-CEM leukemia it was 42.3 µM; in the test with SNB-19 CNS it was greater than 78.4 µM.

For `COC(=O)c1ccc(C(=O)OC)c2nc3cc(Cl)ccc3nc12`, the TGI with TK-10 renal, in the test on HL-60(TB) leukemia, in the test on NCI-H460 lung, in the test with COLO 205 colon, in the test on UACC-257 melanoma and in the test with UO-31 renal was greater than 100 µM each time. Besides, the TGI in the test with NCI-H226 lung, with SF-539 CNS, with CCRF-CEM leukemia and in the test with SNB-19 CNS was greater than 100 µM each time.

As for `O=C(N/N=C/c1cc(Cl)ccc1O)c1ccccc1Nc1ccnc(C(F)(F)F)c1`, the GI50 in the test on TK-10 renal was 0.813 µM; in the test with HL-60(TB) leukemia, 0.225 µM; with NCI-H460 lung it was 0.323 µM; in the test on COLO 205 colon it was 0.36 µM; in the test with UACC-257 melanoma, 1.43 µM; with UO-31 renal, 0.346 µM. Also, the GI50 was 0.769 µM in the test on NCI-H226 lung, 0.721 µM in the test on SF-539 CNS, 0.127 µM in the test with CCRF-CEM leukemia and 0.89 µM in the test with SNB-19 CNS. The TGI with TK-10 renal is greater than 48 µM; in the test with HL-60(TB) leukemia, 0.937 µM; in the test on NCI-H460 lung, 10.5 µM; in the test with COLO 205 colon, 13 µM; in the test with UACC-257 melanoma, 7.54 µM; with UO-31 renal, 7.73 µM. For the same compound, the TGI stood at 7.71 µM with NCI-H226 lung, 8.19 µM in the test with SF-539 CNS, 1.51 µM in the test with CCRF-CEM leukemia and 24.3 µM with SNB-19 CNS.

On to `COc1cc(C2c3cc4c(cc3[C@@H](Nc3ccc([N+](=O)[O-])cc3)C3COC(=O)[C@H]23)OCO4)cc(OC)c1O` (stereo partly drawn), for which the TGI with TK-10 renal was determined as 6.97 µM; in the test with NCI-H460 lung it was 2.14 µM; in the test with COLO 205 colon, 10.1 µM; with UACC-257 melanoma, 34.5 µM; with UO-31 renal, 8.76 µM; in the test on NCI-H226 lung, 3.1 µM. Further, the TGI in the test with SF-539 CNS is 3.79 µM; in the test with CCRF-CEM leukemia, 0.967 µM and 8.1 µM; in the test on SNB-19 CNS, 25.8 µM. In addition, the GI50 in the test on HL-60(TB) leukemia is 0.0114 µM; with NCI-H460 lung it was 0.0658 µM; in the test with UO-31 renal it was 0.753 µM; with SF-539 CNS it was 0.734 µM; in the test on CCRF-CEM leukemia, 0.226 µM; in the test on SNB-19 CNS, 0.481 µM.

As for `Cc1ccc(N=Nc2c(O)ccc3n[nH]nc23)cc1`, the GI50 in the test with TK-10 renal is 11.7 µM; in the test on HL-60(TB) leukemia, 7.32 µM; in the test with NCI-H460 lung it was 13.9 µM; in the test on COLO 205 colon it was 22.4 µM; in the test with UACC-257 melanoma it was 5.09 µM; in the test with UO-31 renal it was 11.7 µM. For the same compound, the GI50 in the test with NCI-H226 lung is 15.3 µM; in the test with SF-539 CNS, 15.8 µM; in the test on CCRF-CEM leukemia, 4.13 µM; in the test with SNB-19 CNS, 20.7 µM. Further, the TGI with TK-10 renal was determined as 73.5 µM; with HL-60(TB) leukemia, 57.8 µM; in the test with NCI-H460 lung it was 52.9 µM; with COLO 205 colon it was 73.9 µM; with UACC-257 melanoma, 39.5 µM; with UO-31 renal, 44.9 µM. The TGI in the test on NCI-H226 lung was greater than 100 µM; with SF-539 CNS it was greater than 100 µM; in the test on CCRF-CEM leukemia it was 55.6 µM; in the test on SNB-19 CNS, greater than 100 µM.

Take `Cc1ccc(NC(=S)C#N)c(C)c1`: the TGI in the test on TK-10 renal was greater than 100 µM; with HL-60(TB) leukemia it was greater than 71.2 µM; in the test with NCI-H460 lung it was greater than 100 µM; in the test on COLO 205 colon, greater than 100 µM; in the test on UACC-257 melanoma it was greater than 100 µM; with UO-31 renal it was greater than 100 µM. Also, the TGI with NCI-H226 lung, with SF-539 CNS, with CCRF-CEM leukemia and with SNB-19 CNS was greater than 100 µM in each case.

With `CSc1ccc(NC(=O)Nc2cc(C)ccn2)cc1`, the TGI with TK-10 renal, in the test with HL-60(TB) leukemia, with NCI-H460 lung, with COLO 205 colon, in the test on UACC-257 melanoma and in the test on UO-31 renal was greater than 100 µM each time. The TGI with NCI-H226 lung, with SF-539 CNS, in the test with CCRF-CEM leukemia and with SNB-19 CNS was greater than 100 µM each time.
